We go through 5 compounds from patent US12268683B2, “Compounds and methods for synergistic activation of M channels” (THE REGENTS OF THE UNIVERSITY OF CALIFORNIA, priority 2018, dated 2025).

The structures appear in SMILES notation. Read-outs that look alike come from different tables or passages of the source. Bounds are passed on as bounds.

Assay type in all cases: cell-based
Assay [1] concerns the target KCNQ4 (Homo sapiens, UniProt P56696). The experiment in a line: TEVC of homomeric KCNQ4 expressed in Xenopus oocytes. The text has this: (§1) cRNA transcripts encoding human KCNA1, KCNQ1, KCNQ2, KCNQ3, KCNQ4, or KCNQ5 were generated by in vitro transcription using the T7 polymerase message machine kit (Thermo Fisher Scientific), after vector linearization, from cDNA sub-cloned into plasmids incorporating X. laevis β-globin 5′ and 3′ UTRs flanking the coding region to enhance translation and cRNA stability. cRNA was quantified by spectrophotometry. Mutant cDNAs were generated by site-directed mutagenesis using a QuikChange kit according to manufacturer's protocol (Stratagene, San Diego, Calif.) and corresponding cRNAs prepared as above. Defolliculated stage V and VI X. laevis oocytes (Ecocyte Bioscience, Austin, Tex.) were injected with Kv channel a subunit cRNAs (10 ng total per oocyte). Oocytes were incubated at 16° C. in Barth's saline solution (Ecocyte) containing penicillin and streptomycin, with daily washing, for 3-5 days prior to two-electrode voltage-clamp (TEVC) recording.
(§2) TEVC recording was performed at room temperature with an OC-725C amplifier (Warner Instruments, Hamden, Conn.) and pClamp10.2 software (Molecular Devices, Sunnyvale, Calif.) 3-5 days after cRNA injection as described in the section above. Oocytes were placed in a small-volume oocyte bath (Warner) and viewed with a dissection microscope. Chemicals were sourced from Sigma. Bath solution was (in mM): 96 NaCl, 4 KCl, 1 MgCl2, 1 CaCl2. 10 HEPES (pH 7.6). […] MTX (DMSO), sorbic acid (ethanol), and glutaconic acid (molecular grade H2O) were stored at −20° C. as 1 M stocks. Oleamide was stored as a 1 mM stock in ethanol at 4° C. Palmitic acid was conjugated with bovine serum albumin as a 1 mM stock and stored at −20° C. All compounds were diluted to working concentrations each experimental day. All compounds were introduced to the recording bath via gravity perfusion at a constant flow of 1 ml/min for 3 min prior to recording. Pipettes were of 1-2 MΩ resistance when filled with 3 M KCl. Currents were recorded in response to pulses between −80 and +40 mV at 20 mV intervals, or a single pulse to +40 mV, from a holding potential of −80 mV, to yield current-voltage relationships, current magnitude, and for quantifying activation rate. TEVC data analysis was performed with Clampfit10.2 (Molecular Devices) and Graphpad Prism software (GraphPad, San Diego, Calif., USA); values are stated as mean±SEM. Normalized tail currents were plotted versus prepulse voltage and fitted with a single Boltzmann function:
(§3) cRNA transcripts encoding human KCNQ2, KCNQ3, KCNQ4, KCNQ5 (Kv7.2-Kv7.5) were generated by in vitro transcription using the T7 polymerase mMessage mMachine kit (Thermo Fisher Scientific), after vector linearization, from cDNA sub-cloned into plasmids incorporating Xenopus laevis β-globin 5′ and 3′ UTRs flanking the coding region to enhance translation and cRNA stability. cRNA was quantified by spectrophotometry. Mutant KCNQ2 and KCNQ3 cDNAs were generated with site-directed mutagenesis using a QuikChange kit according to the manufacturer's protocol (Stratagene, San Diego, Calif.) and corresponding cRNAs prepared as above. Defolliculated stage V and VI Xenopus laevis oocytes (Ecocyte Bioscience, Austin, Tex.) were injected with KCNQ channel α subunit cRNAs (5-10 ng). The oocytes were incubated at 16° C. in Barth's saline solution (Ecocyte) containing penicillin and streptomycin, with daily washing, for 2-5 days prior to two-electrode voltage-clamp (TEVC) recording.
(§4) TEVC recording was performed at room temperature using a OC-725C amplifier (Warner Instruments, Hamden, Conn.) and pClamp8 software (Molecular Devices, Sunnyvale, Calif.) 2-5 days after cRNA injection as described in the section above. The oocytes were placed in a small-volume oocyte bath (Warner) and viewed with a dissection microscope. Unless otherwise stated, chemicals were sourced from Sigma. Bath solution was (in mM): 96 NaCl, 4 KCl, 1 MgCl2, 1 CaCl2, 10 HEPES (pH 7.6).

Assay [2] addresses KCNQ5 (Homo sapiens, UniProt Q9NR82). Put plainly: TEVC of homomeric KCNQ5 expressed in Xenopus oocytes.
Text: as §1, §2, §3, §4

The target of assay [3] is KCNQ3* (KCNQ3-A315T) (Homo sapiens, UniProt O43525, A315T). Put plainly: TEVC of homomeric KCNQ3* expressed in Xenopus oocytes.
Text: as §1, §2, §3, §4

The target of assay [4] is KCNQ2-W236L/KCNQ3-W265L (Homo sapiens, UniProt O43525+O43526, W236L/W265L). Put plainly: TEVC of double-mutant WL/WL KCNQ2/3 channels.
Text: as §1
TEVC recording was performed at room temperature with an OC-725C amplifier (Warner Instruments, Hamden, Conn.) and pClamp10.2 software (Molecular Devices, Sunnyvale, Calif.) 3-5 days after cRNA injection as described in the section above. Oocytes were placed in a small-volume oocyte bath (Warner) and viewed with a dissection microscope. Chemicals were sourced from Sigma. Bath solution was (in mM): 96 NaCl, 4 KCl, 1 MgCl2, 1 CaCl2. 10 HEPES (pH 7.6). […] Currents were recorded in response to pulses between −80 and +40 mV at 20 mV intervals, or a single pulse to +40 mV, from a holding potential of −80 mV, to yield current-voltage relationships, current magnitude, and for quantifying activation rate. […]
cRNA transcripts encoding human KCNQ2, KCNQ3, KCNQ4, KCNQ5 (Kv7.2-Kv7.5) were generated by in vitro transcription using the T7 polymerase mMessage mMachine kit (Thermo Fisher Scientific), after vector linearization, from cDNA sub-cloned into plasmids incorporating Xenopus laevis β-globin 5′ and 3′ UTRs flanking the coding region to enhance translation and cRNA stability. cRNA was quantified by spectrophotometry. […]

Consider `CS(=O)(=O)N(CC(=O)O)c1cccc(F)c1` [3FMSG], for which the “effect on KCNQ4 (in words)” value in assay [1] is “negligible effects”. Further, the concentration giving a half-maximal response (EC50) (usually the midpoint of the concentration-response curve) in assay [2] (Example 4, read-out: EC50 of KCNQ5 activation) is 171 ± 112 nM; in assay [3] (Example 4, read-out: EC50, ΔV0.5act of KCNQ3*), 18 ± 12 nM. Besides, the “relative Na+ permeability of KCNQ3* compared to K+” value in assay [3] is “induces a similar increase in relative Na^+ permeability”.
On to `CCCCCCCCC/C=C/C=O` [(E)-2-dodecenal], for which, in assay [3], the “effect on KCNQ3* (in words)” value was “insensitive”.
With `CC(=O)c1c(O)c(C)c(O)c(Cc2c(O)c3c(c(C(=O)/C=C/c4ccccc4)c2O)OC(C)(C)C=C3)c1O` [MTX, mallotoxin], the “reduction of MTX potency (negative shift in voltage dependence) by W/L mutation” value in assay [4] (KCNQ2-W236L or KCNQ3-W265L, or both) is listed as “tenfold”. Further, the “shift of midpoint voltage of KCNQ4 activation” value in assay [1] (MTX 30 μM) is given as −17 mV. Moreover, the concentration giving a half-maximal response (EC50) in assay [1] (−60 mV, read-out: EC50 of KCNQ4 activation) was determined as 20200 nM; in assay [2] (−60 mV, read-out: EC50 of KCNQ5 activation), 67100 nM; in assay [3] (−60 mV, read-out: EC50 of KCNQ3* activation) it was 13000 nM. Further, the “shift of midpoint voltage of KCNQ5 activation” value in assay [2] (MTX 30 μM) is reported as −14 mV. Moreover, the KCNQ5 current fold-increase entry in assay [2] (−60 mV, 100 μM) is “eight-fold”. Besides, in assay [3] (MTX 30 μM), the “shift of midpoint voltage of KCNQ3* activation” value was −9 mV.
As for `NCC1(CC(=O)O)CCCCC1` [gabapentin, reference compound], the “augmentation of WL/WL KCNQ2/3 current” value in assay [4] is recorded as not above 50%. Besides, the “effect on KCNQ4 (in words)” value in assay [1] was “insensitive”. Further, the “effect on KCNQ5 (in words)” value in assay [2] is listed as “activated”. Moreover, in assay [2] (−60 mV), the “maximal fold increase in KCNQ5 current” value was found to be 3 fold. The EC50 in assay [2] (−60 mV, read-out: EC50 of KCNQ5 activation by gabapentin) was 1.9 nM; in assay [3] (−60 mV, read-out: EC50 of KCNQ3* activation by gabapentin) it was 5.3 nM. For the same compound, in assay [3], the “effect on KCNQ3* (in words)” value is listed as “activated”. The “maximal fold increase in KCNQ3 current” value in assay [3] (−60 mV) stood at 4 fold.
With `NCC(=O)O` [glycine, reference compound], in assay [1], the “effect on KCNQ4 (in words)” value was “unable to open”. In addition, in assay [2], the “effect on KCNQ5 (in words)” value was “no effects”. Besides, in assay [3], the “effect on KCNQ3* (in words)” value is “no effects”.
